Patent US12522597B2, “Methods and compositions for modulating splicing” (Skyhawk Therapeutics, Inc., priority 2019, dated 2026)
Like-named read-outs stand apart in the source and are kept apart here.

Tests used:
[1] = tested on: MDR1-MDCK cell monolayers; experiment: MDCK-MDR1 permeability assay (BBB penetration potential); format: in vitro ADME; conditions: dog, MDCK-MDR1, 120 min, 5 μM, pH 7.4
Description: (§1) Each determination is performed in duplicate. […] Analytical conditions are outlined below.

[2] = tested on: MDR1; experiment: as above; format: in vitro ADME; conditions: dog; for efflux ratio at 120 min, 5 μM: MDCK-MDR1, pH 7.4, MDCK-MDR1: Efflux; for Papp A→B at 120 min, 5 μM: MDCK-MDR1, pH 7.4, MDCK-MDR1: Papp A-B; for Papp B→A at 120 min, 5 μM: MDCK-MDR1, pH 7.4, MDCK-MDR1: Papp B-A
Description: as §1

[3] = tested on: Huntingtin (HTT) transcripts; experiment: Quantitative splicing assay (HTT), qPCR; format: cell-based; conditions: Homo sapiens, GM04724 (CAG 70/20) Huntington's disease patient lymphoblasts, 24 h
Description: GM04724 (CAG 70/20) Huntington's disease patient lymphoblasts (Coriell) are plated in 96-wel v-bottom plates at 50,000 cells/well. Immediately after plating, cells are dosed with compound for 24 h at concentrations ranging from 2.5 uM to 0.15 nM (0.1% DMSO). Treated cells are lysed and cDNA synthesized using the Fast Advanced Cells-to-Ct kit (Thermofisher A35378) according to the manufacturer's instructions. 2 uL of each cDNA are used in qPCR reactions to confirm the compound-induced inclusion of a cryptic exon within intron 49 of the Huntingtin (HTT) transcripts. The qPCR reactions are prepared in 384-well plates in 10 uL volume, using TaqMan™ Fast Advanced Master Mix [ThermoFisher; 4444965] with primers and probes shown in the table below. Reactions are run in a Quant Studio 6 qPCR instrument with default settings.

[4] = tested on: mHTT protein; experiment: mHTT protein assay (2B7-MW1, Mesoscale Discovery); format: cell-based, human; conditions: GM04724 (CAG 70/20) Huntington's disease patient lymphoblast cells, 48 hours, 2B7-MW1 MSD; read-out: HTT Potency - Protein EC50 mHTT (average)
In short: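 GM04724 Huntington's patient lymphoblasts (CAG 70/20) were treated for 48 h at 10 μM to 0.6 nM. mHTT was quantified by 2B7-MW1 MSD immunoassay, whose signal depends on polyQ expansion and HTT fragment size. Viability was run on a parallel plate by CellTiter-Glo.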

[5] = qPCR HTTex49_50, read-out: HTT Potency - Splicing: E49-50 EC50 (average)
[6] = qPCR cryptic exon 49b inclusion, read-out: HTT Potency - Splicing: E49b EC50 (average)

Structure (SMILES)	MDCK-MDR1: % Recov A-B [1] [%]	MDCK-MDR1: % Recov B-A [1] [%]	efflux ratio at 120 min, 5 μM [2]	Papp A→B at 120 min, 5 μM [2] [×10⁻⁶ cm/s]	Papp B→A at 120 min, 5 μM [2] [×10⁻⁶ cm/s]	EC50 [3, 5] [nM]	EC50 [3, 6] [nM]	EC50 [4] [nM]
Cn1ccc(-c2ccc(-c3ccc(O[C@H]4C[C@@H]5CCC[C@@H](N5)[C@H]4F)nn3)c(O)c2)n1 (single isomer, unassigned) [68-ENT2]	76	89	4	8.23	31.6	16 to 50	16 to 50	101 to 500
Cc1nc(-c2ccc(-c3ccc(O[C@H]4C[C@@H]5CCC[C@@H](N5)[C@H]4F)nn3)c(O)c2)cs1 (single isomer, unassigned) [71-ENT1]	47	60	4	4.96	18.6	16 to 50	16 to 50	16 to 50
Cn1c(=O)oc2cc(-c3ccc(O[C@@H]4C[C@H]5CCC[C@H](N5)[C@@H]4F)nn3)c(O)cc21 (single isomer, unassigned) [74-ENT1]	96	88	4	5.6	22.8	101 to 500	501 to 10000	501 to 10000
Cn1c(=O)oc2cc(-c3ccc(O[C@H]4C[C@@H]5CCC[C@@H](N5)[C@H]4F)nn3)c(O)cc21 (single isomer, unassigned) [74-ENT2]	87	75	5	6.96	31.4	501 to 10000	501 to 10000	501 to 10000
Cc1ccc(-c2ccc(-c3ccc(O[C@@H]4C[C@H]5CCC[C@H](N5)[C@@H]4F)nn3)c(O)c2)nn1 (single isomer, unassigned) [75-ENT1]	90	92	9	3.66	32.5	501 to 10000	501 to 10000	501 to 10000
Cc1ccc(-c2ccc(-c3ccc(O[C@H]4C[C@@H]5CCC[C@@H](N5)[C@H]4F)nn3)c(O)c2)nn1 (single isomer, unassigned) [75-ENT2]	82	78	10	3.96	39.7	501 to 10000	501 to 10000	501 to 10000
COc1cc(-c2ccc(-c3ccc(O[C@@H]4C[C@H]5CCC[C@H](N5)[C@@H]4F)nn3)c(O)c2)cnn1 (single isomer, unassigned) [76-ENT1]	64	70	8	3.83	32.3	0.01 to 15	0.01 to 15	16 to 50
COc1cc(-c2ccc(-c3ccc(O[C@H]4C[C@@H]5CCC[C@@H](N5)[C@H]4F)nn3)c(O)c2)cnn1 (single isomer, unassigned) [76-ENT2]	82	85	10	4.19	39.9	0.01 to 15	0.01 to 15	0.01 to 15
Oc1cc(-c2cnccn2)ccc1-c1ccc(O[C@H]2C[C@@H]3CCC[C@@H](N3)[C@H]2F)nn1 (single isomer, unassigned) [79-ENT2]	74	82	3	9.52	25.8	51 to 100	51 to 100	101 to 500
Cn1cc(-c2cc(O)c(-c3ccc(O[C@@H]4C[C@H]5CCC[C@H](N5)[C@@H]4F)nn3)cc2F)cn1 (single isomer, unassigned) [82-ENT1]	45	72	4	4.12	16.8	0.01 to 15	0.01 to 15	0.01 to 15
Cn1cc(-c2cc(O)c(-c3ccc(O[C@H]4C[C@@H]5CCC[C@@H](N5)[C@H]4F)nn3)cc2F)cn1 (single isomer, unassigned) [82-ENT2]	35	72	4	3.26	12.8	0.01 to 15	0.01 to 15	0.01 to 15
